Assay results taken from patent publication US20240246967A1, “AXL COMPOUNDS” (ARCUS BIOSCIENCES, INC., priority 2021, published 2024).

What was measured:
Axl [1] = target: T1, Axl (Homo sapiens, UniProt P30530); assay: Axl NanoBRET intracellular kinase assay (intracellular binding, Cell Binding); parameters: host or cells: HEK-293; conditions: HEK-293 cells transfected with Axl-NanoLuc fusion vector; 0.35 μM K-5 NanoBRET tracer
T1 sequence (P30530 26-894): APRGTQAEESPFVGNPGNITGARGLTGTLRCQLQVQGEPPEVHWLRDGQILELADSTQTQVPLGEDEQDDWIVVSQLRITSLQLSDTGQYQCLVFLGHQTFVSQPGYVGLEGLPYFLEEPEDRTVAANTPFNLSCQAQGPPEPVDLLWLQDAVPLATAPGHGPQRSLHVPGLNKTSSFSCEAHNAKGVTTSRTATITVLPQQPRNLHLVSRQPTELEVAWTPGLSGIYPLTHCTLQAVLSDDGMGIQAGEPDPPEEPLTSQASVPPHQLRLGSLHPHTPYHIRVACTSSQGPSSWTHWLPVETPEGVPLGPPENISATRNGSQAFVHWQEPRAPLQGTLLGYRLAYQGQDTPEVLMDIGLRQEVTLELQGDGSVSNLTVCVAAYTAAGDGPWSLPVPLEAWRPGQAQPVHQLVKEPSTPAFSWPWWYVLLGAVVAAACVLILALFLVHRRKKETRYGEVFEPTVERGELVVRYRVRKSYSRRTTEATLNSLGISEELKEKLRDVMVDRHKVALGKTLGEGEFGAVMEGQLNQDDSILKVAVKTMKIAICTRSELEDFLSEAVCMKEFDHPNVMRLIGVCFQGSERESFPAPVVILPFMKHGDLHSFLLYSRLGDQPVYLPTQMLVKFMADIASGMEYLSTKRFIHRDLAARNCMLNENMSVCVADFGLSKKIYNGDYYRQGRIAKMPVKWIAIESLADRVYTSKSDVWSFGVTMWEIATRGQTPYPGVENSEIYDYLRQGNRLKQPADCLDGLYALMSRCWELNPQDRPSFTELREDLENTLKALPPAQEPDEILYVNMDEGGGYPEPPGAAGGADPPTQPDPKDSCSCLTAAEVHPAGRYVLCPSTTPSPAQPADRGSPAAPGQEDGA
Procedure, shortened: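 HEK-293 cells transiently transfected with Axl-NanoLuc fusion the day before were pre-incubated with compound for 1 h at 37 °C, 5% CO2 (0.5% DMSO), then with 0.35 μM K-5 NanoBRET tracer for 2 h. Tracer displacement was read as the 610/450 nm BRET ratio; IC50 from 4-parameter fit.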

Axl [2] = target: T1, Axl; assay: HTRF KinEASE-TK biochemical potency assay, AXL; parameters: purchased Invitrogen; conditions: 5 nM AXL, 700 μM ATP, 800 nM TK Substrate-biotin
Procedure, shortened: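 HTRF 665/620 nm read-out after streptavidin-XL665/anti-phosphotyrosine cryptate detection (1 h RT). Final reaction: 5 nM AXL or 1 nM TYRO3/MER, 800 nM TK substrate-biotin, 700 μM ATP, pH 7.4 HEPES buffer, 1% DMSO, 2 h RT, after 1 h enzyme–compound preincubation.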

Row | Structure (SMILES) | IC50 (Axl [1]) | IC50 (Axl [2])
1 | CCC1(N2CCC[C@@H]2CO)CCc2ccc(-c3cnc4[nH]nc(-c5ccc(C(N)=O)c(Cl)c5)c4c3)cc2CC1 (stereo partly drawn) [Example 74, 2-Chloro-4-(5-{7-ethyl-7-[(2R)-2-(hydroxymethyl)pyrrolidin-1-yl]-6,7,8,9-tetrahydro-5H-benzo[7]annulen-2-yl}-1H-pyrazolo[3,4-b]pyridin-3-yl)benzamide] | < 100 nM | < 100 nM
2 | Cc1cc2c(cc1-c1cnc3[nH]nc(-c4ccc(C(C)(C)O)c(Cl)c4)c3c1)CCC(N1CCC[C@H]1C)CC2 (stereo partly drawn) [Example 90, 2-[2-Chloro-4-(5-{3-methyl-7-[(2R)-2-methylpyrrolidin-1-yl]-6,7,8,9-tetrahydro-5H-benzo[7]annulen-2-yl}-1H-pyrazolo[3,4-b]pyridin-3-yl)phenyl]propan-2-ol] | 100 to 1000 nM | < 100 nM
3 | C[C@@H]1CCCN1C1CCc2ccc(-c3cnc4[nH]nc(-c5ccc(C6(O)CCOC6)c(Cl)c5)c4c3)cc2CC1 (stereo partly drawn) [Example 63, 3-[2-Chloro-4-(5-{7-[(2R)-2-methylpyrrolidin-1-yl]-6,7,8,9-tetrahydro-5H-benzo[7]annulen-2-yl}-1H-pyrazolo[3,4-b]pyridin-3-yl)phenyl]oxolan-3-ol] | < 100 nM | < 100 nM
4 | NC(=O)c1ccc(-c2n[nH]c3ncc(-c4ccc5c(c4)CCC(N4CCCC4)CC5)cc23)cc1C(F)(F)F (stereo not shown) [Example 80, 4-(5-(7-(Pyrrolidin-1-yl)-6,7,8,9-tetrahydro-5H-benzo[7]annulen-2-yl)-1H-pyrazolo[3,4-b]pyridin-3-yl)-2-(trifluoromethyl)benzamide] | < 100 nM | < 100 nM
5 | C[C@@H]1CCCN1C1CCc2ccc(-c3cnc4[nH]nc(-c5ccc(C6(O)COC6)c(Cl)c5)c4c3)cc2CC1 (stereo partly drawn) [Example 64, 3-[2-Chloro-4-(5-{7-[(2R)-2-methylpyrrolidin-1-yl]-6,7,8,9-tetrahydro-5H-benzo[7]annulen-2-yl}-1H-pyrazolo[3,4-b]pyridin-3-yl)phenyl]oxetan-3-ol] | > 1000 nM | < 100 nM
6 | NC(=O)c1ccc(-c2n[nH]c3ncc(-c4ccc5c(c4)CC[C@@H](N4CCCC4)CC5)cc23)cc1Cl [Example 84, (S)-2-Chloro-4-(5-(7-(pyrrolidin-1-yl)-6,7,8,9-tetrahydro-5H-benzo[7]annulen-2-yl)-1H-pyrazolo[3,4-b]pyridin-3-yl)benzamide] | < 100 nM | < 100 nM
7 | NS(=O)(=O)c1ccc(-c2n[nH]c3ncc(-c4ccc5c(c4)CC[C@@H](N4CCCC4)CC5)cc23)cc1Cl [Example 91, (S)-2-Chloro-4-(5-(7-(pyrrolidin-1-yl)-6,7,8,9-tetrahydro-5H-benzo[7]annulen-2-yl)-1H-pyrazolo[3,4-b]pyridin-3-yl)benzenesulfonamide] | < 100 nM | < 100 nM
8 | O=C(c1ccc(-c2n[nH]c3ncc(-c4ccc5c(c4)CC[C@@H](N4CCCC4)CC5)cc23)cc1Cl)N1CCC(O)CC1 [Example 85, (S)-(2-Chloro-4-(5-(7-(pyrrolidin-1-yl)-6,7,8,9-tetrahydro-5H-benzo[7]annulen-2-yl)-1H-pyrazolo[3,4-b]pyridin-3-yl)phenyl)(4-hydroxypiperidin-1-yl)methanone] | < 100 nM | < 100 nM
9 | Cc1cc(-c2n[nH]c3ncc(-c4ccc5c(c4)CC[C@@H](N4CCCC4)CC5)cc23)cc(F)c1C(N)=O [Example 83, (S)-2-Fluoro-6-methyl-4-(5-(7-(pyrrolidin-1-yl)-6,7,8,9-tetrahydro-5H-benzo[7]annulen-2-yl)-1H-pyrazolo[3,4-b]pyridin-3-yl)benzamide] | < 100 nM | < 100 nM

More lines, now with the values ahead:

Row | IC50 (Axl [1]) | IC50 (Axl [2]) | Structure (SMILES)
10 | < 100 nM | < 100 nM | C[C@@H]1CCCN1C1(C)CCc2ccc(-c3cnc4[nH]nc(-c5ccc(S(N)(=O)=O)c(Cl)c5)c4c3)cc2CC1 (stereo partly drawn) [Example 93, 2-Chloro-4-(5-(7-methyl-7-((R)-2-methylpyrrolidin-1-yl)-6,7,8,9-tetrahydro-5H-benzo[7]annulen-2-yl)-1H-pyrazolo[3,4-b]pyridin-3-yl)benzenesulfonamide]
11 | < 100 nM | < 100 nM | C[C@@H]1CCCN1C1(C)CCc2ccc(-c3cnc4[nH]nc(-c5ccc(C(N)=O)c(Cl)c5)c4c3)cc2CC1 (stereo partly drawn) [Example 68, 2-Chloro-4-(5-{7-methyl-7-[(2R)-2-methylpyrrolidin-1-yl]-6,7,8,9-tetrahydro-5H-benzo[7]annulen-2-yl}-1H-pyrazolo[3,4-b]pyridin-3-yl)benzamide]
12 | < 100 nM | < 100 nM | C[C@@H]1CCCN1C1(C)CCc2ccc(-c3cnc4[nH]nc(-c5ccc(C(=O)N6CCC6)cc5)c4c3)cc2CC1 (stereo partly drawn) [Example 76, (2R)-1-(2-{3-[4-(Azetidine-1-carbonyl)phenyl]-1H-pyrazolo[3,4-b]pyridin-5-yl}-7-methyl-6,7,8,9-tetrahydro-5H-benzo[7]annulen-7-yl)-2-methylpyrrolidine]
13 | < 100 nM | < 100 nM | C[C@@H]1CCCN1C1(C)CCc2ccc(-c3cnc4[nH]nc(-c5ccc(C(=O)NC6CCOCC6)cc5)c4c3)cc2CC1 (stereo partly drawn) [Example 88, 4-(5-(7-Methyl-7-((R)-2-methylpyrrolidin-1-yl)-6,7,8,9-tetrahydro-5H-benzo[7]annulen-2-yl)-1H-pyrazolo[3,4-b]pyridin-3-yl)-N-(tetrahydro-2H-pyran-4-yl)benzamide]
14 | < 100 nM | < 100 nM | C[C@@H]1CCCN1C1(C)CCc2ccc(-c3cnc4[nH]nc(-c5ccc(C(=O)NC6CC6)cc5)c4c3)cc2CC1 (stereo partly drawn) [Example 69, N-Cyclopropyl-4-(5-{7-methyl-7-[(2R)-2-methylpyrrolidin-1-yl]-6,7,8,9-tetrahydro-5H-benzo[7]annulen-2-yl}-1H-pyrazolo[3,4-b]pyridin-3-yl)benzamide]
15 | < 100 nM | < 100 nM | COC1CCN(C(=O)c2ccc(-c3n[nH]c4ncc(-c5ccc6c(c5)CCC(C)(N5CCC[C@H]5C)CC6)cc34)cc2Cl)CC1 (stereo partly drawn) [Example 67, 1-[2-Chloro-4-(5-{7-methyl-7-[(2R)-2-methylpyrrolidin-1-yl]-6,7,8,9-tetrahydro-5H-benzo[7]annulen-2-yl}-1H-pyrazolo[3,4-b]pyridin-3-yl)benzoyl]-4-methoxypiperidine]
16 | < 100 nM | < 100 nM | COC1CCN(C(=O)c2ccc(-c3n[nH]c4ncc(-c5ccc6c(c5)CCC(C)(N5CCC[C@H]5C)CC6)cc34)cc2)CC1 (stereo partly drawn) [Example 89, (4-Methoxypiperidin-1-yl)(4-(5-(7-methyl-7-((R)-2-methylpyrrolidin-1-yl)-6,7,8,9-tetrahydro-5H-benzo[7]annulen-2-yl)-1H-pyrazolo[3,4-b]pyridin-3-yl)phenyl)methanone]
17 | < 100 nM | < 100 nM | CC(C)NC(=O)c1ccc(-c2n[nH]c3ncc(-c4ccc5c(c4)CCC(C)(N4CCC[C@H]4C)CC5)cc23)cc1 (stereo partly drawn) [Example 70, 4-(5-{7-Methyl-7-[(2R)-2-methylpyrrolidin-1-yl]-6,7,8,9-tetrahydro-5H-benzo[7]annulen-2-yl}-1H-pyrazolo[3,4-b]pyridin-3-yl)-N-(propan-2-yl)benzamide]
18 | < 100 nM | < 100 nM | NC(=O)c1ccc(-c2n[nH]c3ncc(-c4ccc5c(c4)CCC(N4CCCC4)CC5)cc23)cc1 (stereo not shown) [Example 78, 4-(5-(7-(Pyrrolidin-1-yl)-6,7,8,9-tetrahydro-5H-benzo[7]annulen-2-yl)-1H-pyrazolo[3,4-b]pyridin-3-yl)benzamide]
19 | < 100 nM | < 100 nM | CCC1(N2CCC[C@H]2C)CCc2ccc(-c3cnc4[nH]nc(-c5ccc(C(N)=O)c(Cl)c5)c4c3)cc2CC1 (stereo partly drawn) [Example 73, 2-Chloro-4-(5-{7-ethyl-7-[(2R)-2-methylpyrrolidin-1-yl]-6,7,8,9-tetrahydro-5H-benzo[7]annulen-2-yl}-1H-pyrazolo[3,4-b]pyridin-3-yl)benzamide]
20 | < 100 nM | < 100 nM | COCCNC(=O)c1ccc(-c2n[nH]c3ncc(-c4ccc5c(c4)CCC(C)(N4CCC[C@H]4C)CC5)cc23)cc1 (stereo partly drawn) [Example 72, N-(2-Methoxyethyl)-4-(5-{7-methyl-7-[(2R)-2-methylpyrrolidin-1-yl]-6,7,8,9-tetrahydro-5H-benzo[7]annulen-2-yl}-1H-pyrazolo[3,4-b]pyridin-3-yl)benzamide]
